According to the NIST ThermoML archive (doi:10.1016/j.jct.2019.06.007):
± gives the expanded uncertainty stated by the source.

Conditions: Crystal; DTA

## Cn1c(=O)c2c(ncn2CC(O)CO)n(C)c1=O (stereo unspecified)
  Normal melting temperature: 159.90 ± 1.1 °C
